Measured values from PubChem BioAssay (NCI).
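These data come from cells grown in 96-well plates and exposed to compound for 48 hours at five concentrations. TGI denotes the concentration required for complete inhibition of growth.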

Key:
Test in all cases: inhibition of tumour cell growth, NCI panel, 48 h
786-0 renal = test system: 786-0 renal
DU-145 prostate = test system: DU-145 prostate
HOP-62 NSCLC = test system: HOP-62 NSCLC
MCF7 breast = test system: MCF7 breast
MOLT-4 leukemia = test system: MOLT-4 leukemia
OVCAR-3 ovarian = test system: OVCAR-3 ovarian
OVCAR-5 ovarian = test system: OVCAR-5 ovarian
SF-539 CNS = test system: SF-539 CNS
SNB-75 CNS = test system: SNB-75 CNS
U251 CNS = test system: U251 CNS
HL-60(TB) leukemia = test system: HL-60(TB) leukemia

| SMILES | TGI (786-0 renal) [µM] | TGI (DU-145 prostate) [µM] | TGI (HOP-62 NSCLC) [µM] | TGI (MCF7 breast) [µM] | TGI (MOLT-4 leukemia) [µM] | TGI (OVCAR-3 ovarian) [µM] | TGI (OVCAR-5 ovarian) [µM] | TGI (SF-539 CNS) [µM] | TGI (SNB-75 CNS) [µM] | TGI (U251 CNS) [µM] | TGI (HL-60(TB) leukemia) [µM] |
| --- | --- | --- | --- | --- | --- | --- | --- | --- | --- | --- | --- |
| O=[N+]([O-])c1cc(Cl)ccc1S(=O)(=O)N1CCCc2cc(Cl)ccc21 | > 100 | > 100 | > 100 | > 100 | > 100 | > 100 | > 100 | > 100 | > 100 |  |  |
| O=C(NN=C1CCCCC1)NN=C1CCCCC1 |  | > 100 | > 100 | > 100 | > 100 | > 100 | > 100 |  | > 100 | > 100 |  |
| O=C1C[C@H](c2ccc(O)c(O)c2)Oc2cc(O)cc(O)c21 | > 100 |  | > 100 |  | > 100 | > 100 | > 100 | > 100 | > 100 | > 100 | > 100 |
| COc1cccc(-c2cc(=O)c3cc(Cl)cnc3[nH]2)c1 | 42.2 | > 36.4 | 9.84 | > 78.8 | 28.3 | > 43 | > 100 | 2.56 | > 100 | 23.5 |  |
| N=C(c1cccs1)C1(N2CCCCC2)CCCCC1 | > 100 | 30.4 | 47.8 | 30.5 | 30.9 | 30.3 | 34.6 |  |  | 30 | 33.6 |
| Cc1nc2c(=O)[nH]c3ccc(Cl)cc3c2o1 | > 100 |  | > 100 | > 100 | > 100 | > 100 | > 100 | > 100 | > 100 | > 100 |  |
| CC1(C)CC[C@]2(C(=O)O)[C@H](O)C[C@]3(C)C(=CC[C@@H]4[C@@]5(C)CC[C@H](OC6OC(C(=O)O)C(O)C(O)C6O)C(C)(C)[C@@H]5CC[C@]43C)[C@@H]2C1 (stereo partly specified) | > 100 | > 100 | > 100 | > 100 | > 100 | > 100 | > 100 |  | > 100 | > 100 | 44.9 |
| CC1(C)C2CCC(N)(C2)C1O (stereo unspecified) | > 100 | > 100 | > 100 | > 100 | > 100 | > 100 | > 100 |  | > 100 | > 100 |  |
| COC(=O)[C@H](CCSC)NC(=O)c1ccc(CNC(=O)/C(C)=C/c2ccccc2)cc1 | 41.8 | > 100 | 52.3 | > 100 | > 100 | > 100 | > 100 | 61.2 | 28.4 | > 100 |  |
| C=CCC(SC)C1=C(C)C(=O)c2ccccc21 (stereo unspecified) | > 10 | > 10 | > 10 | > 10 | > 10 | > 10 | > 10 | > 10 |  | > 10 |  |
| CN(CCO)/N=N/c1[nH]ncc1C(N)=O |  |  |  | > 100 | > 100 | > 100 | > 100 | > 100 | > 100 | > 100 | > 100 |
| CC(C)c1cccc(C(C)C)c1OS(=O)(=O)NC(=O)OC(C(F)(F)F)C(F)(F)F |  | > 100 | 91.3 | > 100 | 55.6 |  | > 100 | > 100 |  | > 100 | > 100 |
| CC(/C=N/NC1=NCCCN1)=N\NC1=NCCCN1 | > 100 |  | > 100 | > 100 | > 100 | > 100 | > 100 | > 100 | > 100 | > 100 |  |
| COP(C)(=O)C(Cc1c[nH]c2ccccc12)NC(=O)OCc1ccccc1 (stereo unspecified) | > 100 | > 100 | > 100 | > 100 | > 100 | > 100 | > 100 | > 100 |  | > 100 | > 100 |
| COc1ccc(N2C(=O)C3CC4=CC(=O)C[C@H]4[C@H]32)cc1 (stereo partly specified) | > 100 | > 100 | > 100 | > 100 | > 100 | > 100 | > 100 |  | > 100 | > 100 |  |
| c1ccc(C2[C@@H]3CCCc4ccccc4C3=NN2c2ccccc2)cc1 (stereo partly specified) | > 100 |  | > 100 |  | > 100 | > 100 | > 100 |  |  | > 100 | > 100 |
| OC(c1ccccc1)(c1cccnc1)C(O)(c1ccccc1)c1cccnc1 (stereo unspecified) | > 100 | > 100 |  | > 100 |  |  | > 100 | > 100 | > 100 | > 100 | > 100 |
| OC(CN1CCCCC1)c1ccc(/C=C/c2ccc(Cl)cc2)cc1 (stereo unspecified) | > 100 | > 100 | > 100 | > 100 | > 100 | > 100 | > 100 | > 100 |  | > 100 | > 100 |
| Cc1cc(O)c(C(C)C)cc1N=Cc1ccccc1O | 26.3 | 17.4 | 26.1 | 78.9 |  | 9.7 | 41.2 | 49.3 |  | 14.6 | 1.89 |
| Brc1cccc[n+]1-c1ccc2cc(-[n+]3ccccc3Br)ccc2c1 | 69 | 35.5 | 75.6 | > 100 |  | 46.4 | > 100 | 40.1 |  | 29.8 | > 100 |
| CCCCNC(=S)Nc1nc(C(=O)NNC(=O)c2ccccc2)cs1 | 35.2 | 53.4 | 42.9 |  | > 100 | 19.7 | 35 |  | 72.7 | > 100 | > 100 |
| CC1CC[C@@]2(OC1)OC1C[C@H]3[C@@H]4CCC5CC(O)CC[C@]5(C)[C@H]4C/C(=N\N(C)C)[C@]3(C)C1[C@@H]2C (stereo partly specified) | 49.8 | 60.1 | 54.7 | > 100 | > 100 | 38.6 | 62.2 | 60.9 |  | > 100 | 70.5 |
| COc1ccc(C2C(Cl)C(=O)N2NC(=O)Cc2ccccc2)cc1OC (stereo unspecified) | > 100 |  | > 100 |  | > 100 | > 100 | > 100 |  | > 100 | > 100 | > 100 |
